This is an account of results in ChEMBL document CHEMBL5050831, “Substituted quinoxaline derivatives as inhibitors of pfkfb” (2019).

A short description of the series: Metabolic stability in human liver microsomes at […] in presence of NADPH assessed as intrinsic clearance. The class given is ADME, Microsome. The settings on record: read-out: CLH. (In general: Liver microsomes are vesicles of endoplasmic reticulum, rich in cytochrome P450 enzymes.)

As for `CC(C)[C@H](Nc1cc(-c2ccc3ccn(C)c3c2)c2nccnc2c1)c1cccnc1`, the microsomal CLint was 85 µL/min/mg.
